# Source: patent US20110172305A1, “Endocannabinoids for Enhancing Growth and Development in Infants” (priority 2007, published 2011)
# Legend:
# [1] = Body weight of pups raised in small or large (malnourished) litters, daily neonatal injections; format: in vivo, mouse (ICR strain)
# Experimental: (§1) Using an environmental manipulation technique, within 24 hours of birth, half of each mouse litter (ICR strain) was cross-fostered to the dam of another litter born on the same day. The mouse pups of every two litters were divided up between the 2 dams such that one dam reared 4 pups (‘small litter’) and the other dam raised 18-20 pups (large litter). Pups raised in the large litter were expected to suffer from malnutrition due to the crowded environment. Half of each litter received daily injections of the endocannabinoid 2-arachidonoyl glycerol (2-AG) or THC, the major psychoactive molecule in the Cannabis sativa (marihuana) plant for the first 5 days of life. The doses used were 1 or 5 mg/kg THC or 0.1, 1 or 5 mg/kg 2-AG. Body weights were recorded daily. The body weight of pups from the small and the large litters were analyzed by two-way analysis-of-variance.
# [2] = Porsolt forced swim test at adulthood; format: in vivo, mouse (ICR strain); details: treated in infancy, tested at adulthood; FIG. 3A
# Description: (§2) At adulthood (3 months of age), mice were subjected to the open field assay for motor activity (ambulation and rearing), to the Porsolt forced swim test for anti-depressant-like effects and to the prepulse-inhibited acoustic startle response (PPI) assay which assesses sensorimotor gating.
# Porsolt forced swim test: The forced swimming test was based on previous designs (Harkin et al., 2004; Petit-Demouliere et al., 2005; Treit and Menard, 1998): mice were placed in a 2 liter glass beaker (11 cm diameter) filled with water (24+1° C.) up to […] from the bottom (so that the mouse could not touch the bottom) and 8 cm from the rim (so that the mouse cannot escape). […] Immobility at 9 min was analyzed by a t-test, P<0.05.
# [3] = Motor activity (ambulation) in an open field at 3 months of age; format: in vivo, mouse (ICR strain); details: tested at 3 months of age
# Experimental: as §2
# Motor activity in an Open field: Mice were placed in a transparent open field (30×40 cm, divided into 20 squares of equal size), measuring horizontal (ambulatory) and vertical activity, for 6 minutes (min), by manually scoring the number of squares crossed (see (Fride and Mechoulam, 1993).
# The bottom of the open field was divided into 20 squares of equal size. Activity was assessed as the number of squares crossed.
# [4] = Prepulse inhibition (PPI) of the acoustic startle response; format: in vivo, mouse; details: treated at birth; FIG. 7
# Experimental: Prepulse Inhibition (PPI) of the startle reflex: In this experimental model a weak stimulus (70-90 db tone) inhibits the subsequent response to a strong stimulus (120 db tone). Reduced prepulse inhibition of the startle reflex (PPI) is taken as an additional index of the positive symptoms of schizophrenia (Josselyn and Vaccarino, 1998; Swerdlow and Geyer, 1998). PPI was assessed as described previously (Varty et al., 2001). In the model employed, mice were placed in a startle chamber (Hamilton and Kinder, Poway, Calif., USA). A high frequency loudspeaker produces a 65 db background noise and the various acoustic stimuli: 77 and 81 db prepulse; 120 db startle, separated by 100 ms. The startle response of the mouse is transduced and stored by a computer. Sixty-five readings are taken at 1 ms intervals, and the average amplitude is taken as the startle response. Each test session lasts for about 20 min and consists of 10 presentations of each of the six trial types (Prepulse, Prepulse+Pulse, Pulse or no stimulus other than background) separated by 15 s. The amount of prepulse inhibition is calculated as %PPI=[1-(startle response for Prepulse+Pulse)/(startle response for Pulse alone)]×100.
# [5] = Intracerebral versus subcutaneous injection, pup body weight gain; format: in vivo, mouse (ICR strain); details: day 1 of birth, FIG. 8A-E
# Experimental: Newborn (day 1 of birth) mouse pups (ICR strain) were injected subcutaneously (sc) with SR141716 (SR, 20 or 40 mg/kg), as described previously (Fride, 2004; Fride et al., 2003; Fride et al., 2001). In addition, littermates were injected with SR directly into the brain, at 2 depths (2-3 mm) and at several doses 4.5, 9.0 or 22.5 μg (between 50 and 10-fold lower concentrations than the sc injections).
# [6] = Growth and survival of newborn Spiny wild mice; format: in vivo, Spiny wild mice (acomys cahirinus); details: 50 mg/kg
# Description: FIG. 9A illustrates the relative state of maturation in terms of the growth curve during the first two postnatal weeks in laboratory (ICR strain) mice, compared to Spiny wild mice (acomys cahirinus) which is born at a more advanced stage of development. […] This is similar to the difference in brain maturation predicted by the model designed by Clancy and colleagues (Clancy et al., 2007), i.e., the day of birth of the spiny mouse being equivalent to postnatal day 8 in the laboratory mouse.
# [7] = Food intake ('milkbands') of pups raised in small or large litters; format: in vivo, mouse (ICR strain); details: THC 1 or 5 mg/kg, daily injections for the first 5 days of life
# Experimental: as §1
# On each subsequent day, pups were briefly separated from their mothers for the duration of weighing and scoring of the presence of “milkbands” in their stomachs. (As the stomach area in mouse pups is transparent, due to lack of hair and the thinness of the skin, the amount of milk consumed can be observed as a “milkband”).
compound,measurement,setting,value
"CCCCC/C=C\C/C=C\C/C=C\C/C=C\CCCC(=O)OC(CO)CO [2-AG, 2-arachidonoyl glycerol]",effect on the growth curve,"[1]; 0.1 mg/kg (lowest dose), daily injections for the first 5 days of life",no effect on the growth curve
same,body weight gain,"[1]; 1 mg/kg, daily injections for the first 5 days of life, malnourished (overcrowded) litters, FIG. 1",significantly enhanced body weight gain
same,effect on the growth curve,"[1]; 5 mg/kg (highest dose), daily injections for the first 5 days of life",no effect on the growth curve
same,body weight at 3 months of age versus control mice from large (malnourished) litter,"[1]; treated as neonates, large litter, FIG. 2",still had elevated body weights
same,body weight at 3 months of age versus vehicle-treated mice raised in small litters,"[1]; treated as neonates, overcrowded litter, FIG. 2",did not differ significantly
same,behavior in the Forced swim test (immobility time),[2],displayed anti-depressant-like behavior
same,motor activity in open field (number of squares crossed),"[3]; 2-AG at birth, FIG. 3B",did not differ from that of controls
Cc1c(C(=O)NN2CCCCC2)nn(-c2ccc(Cl)cc2Cl)c1-c1ccc(Cl)cc1 [Rimonabant],motor activity in open field (number of squares crossed),"[3]; rimonabant at birth, ICR strain, FIG. 6, P<0.001",hyperactive
same,"sensorimotor gating, prepulse inhibition of acoustic startle response (% PPI) versus vehicle control",[4],significantly lower
same,effect on pup growth,"[5]; injected directly into the brain, 2-3 mm depth, 4.5, 9.0 or 22.5 μg",none of the centrally injected regimens had any effect on pup growth
same,body weight gain,[5]; s.c. 20 or 40 mg/kg,significantly retarded body weight gain
same,growth (body weight),"[6]; FIG. 9B, P<0.0001",highly significant delay in growth
same,mortality rate,"[6]; FIG. 9C, P<0.01 versus controls",60%
"CCCCCc1cc(O)c2c(c1)OC(C)(C)[C@@H]1CCC(C)=C[C@@H]21 [THC, Δ^9-tetrahydrocannabinol]",effect on the body weight curve,"[1]; THC 1 or 5 mg/kg, daily injections for the first 5 days of life",Neither of the doses of THC had an effect
same,effect on food intake ('milkbands'),[7],Neither of the doses of THC had an effect
